Results reported in patent publication US20250223270A1, “Sulfonamide Compounds and Use Thereof” (Taiho Pharmaceutical Co., Ltd., priority 2017, published 2025).
Values after ≈ are worked out from the molar mass of the structure shown. “Also recorded” adds a separate entry of the source.

How the values were obtained:
Format in all cases: physicochemical
[1] = Stability test, 40° C./75% RH, analogous substances by HPLC
Description: (§1) The amount of analogous substances in the sample solution was measured by HPLC analysis. The handling of the device including data processing was in accordance with the manual provided with the device. (i.e., Prominence-i). About 2 mg of the exemplary sample of the present invention was dissolve in 4 mL of mobile phase A/mobile phase B mixture (17:3), and the resulting mixture was used as sample solution. • Column: CAPCELL PAK ADME manufactured by Shiseido (4.6×150 mm, 3 μm) • UV detection: 220 nm • Column temperature: 40° C. • Column flow rate: 1.0 mL/min • Mobile phase: A; 5 mM phosphate buffer, pH 6.2/Acetonitrile (4:1) • B: acetonitrile • Injection volume: 5 μL • Sample cooler temperature: 5° C. • Collection time: 40 minutes
(§2) The solid stability of the exemplary sample of the present invention and the free form obtained above was tested after the sample was stored at 40° C./75% RH (closed and open condition) for 2 weeks or 4 weeks. Open condition means that the lid of the glass bottle was removed and covered with Kimwipe. • Measurement points: 2 weeks and 4 weeks • Storage amount: about 50 to 60 mg • Storage container: brown glass bottle

[2] = Solid stability test, 40° C./75% RH, 70° C., 80° C., by HPLC
Description: as §2, with “(open condition), 70° C. (closed)” for “(closed”, “80° C. (closed) after” for “open condition) for”, “Kimwipe, 70° C. and 80° C. (closed).” for “Kimwipe.”, “30” for “50 to 60”
as §1, with “6.5/Acetonitrile” for “6.2/Acetonitrile”

[3] = Optical purity stability by chiral HPLC; conditions: 40° C./75% RH (closed and open condition), 24 hours
Description: The optical purity was also measured by the following HPLC condition • Detector: UV at 240 nm • Column: […] IE (4.6×250 mm, 5 μm)/Daicel corp. • Column temperature: 40° C. • Mobile phase: n-hexane/ethanol/ethanolamine/acetic acid (65:35:0.5:0.2) • Flow rate: 1.0 mL/min • Injection: 5 μL • Sample temperature: 5° C. • Time span of measurement: 40 min
Compound—RR, RS,SS: 0.05%
The optical purity was measured also with added 0.2% optical isomer.
The solid stability of the exemplary sample of the present invention and the free form obtained
above was tested before and after the sample was stored at 40° C./75% RH (closed and open condition) for 24 hours.

[4] = Hygroscopicity, moisture adsorption/desorption test; conditions: for hygroscopicity: moisture adsorption/desorption test, FIG. 8; for mass change in moisture adsorption/desorption test: relative humidity of 95%, 25° C.
Description: The moisture adsorption/desorption test was carried out according to the following conditions.
Approximately 10 to 15 mg of the sample was filled in a dedicated quartz holder, and the weight of each sample at each humidity was continuously measured and recorded under the following conditions.

[5] = Charging property (adhesion to spatula or glass bottle); conditions: adhesion to a spatula or a glass bottle
[6] = Solubility test, 37° C., 2 hours; conditions: for Solubility: 2 hours
Description: About 15 mg of the exemplary sample of the present invention was added to 1 mL of each solvent and was swelled at 37° C. for 2 hours under light resistant condition. After centrifugation, each supernatant was filtered, and 0.7 mL of a mixture of water and acetonitrile (1:1) was added to 0.1 ml of the filtrate.
Following of mobile phase: Control the gradient by mixing the mobile phase A and B as directed in the following table below • Flow rate: 1.0 mL per minutes • Time span of measurement: For 12 minutes after injection

Chemical Purity (%) ([1]; 40° C./75% RH (Closed), 2 wks)	Total amount of analogous substances (%) ([1]; 40° C./75% RH (Closed), 2 wks)	Chemical Purity (%) ([1]; 40° C./75% RH (Closed), 4 wks)	Total amount of analogous substances (%) ([1]; 40° C./75% RH (Closed), 4 wks)	Chemical Purity (%) ([1]; 40° C./75% RH (Open), 2 wks)	Total amount of analogous substances (%) ([1]; 40° C./75% RH (Open), 2 wks)	Chemical Purity (%) ([1]; 40° C./75% RH (Open), 4 wks)	Total amount of analogous substances (%) ([1]; 40° C./75% RH (Open), 4 wks)	Chemical Purity (%) ([1]; Initial)	Total amount of analogous substances (%) ([1]; Initial)	Chemical Purity (%) ([2]; 40° C. 75% RH (Open), 4wks)	Total amount of analogous substances (%) ([2]; 40° C. 75% RH (Open), 4wks)	Chemical Purity (%) ([2]; 70° C. (Closed), 2 wks)	Total amount of analogous substances (%) ([2]; 70° C. (Closed), 2 wks)	Chemical Purity (%) ([2]; 70° C. (Closed), 4 wks)	Total amount of analogous substances (%) ([2]; 70° C. (Closed), 4 wks)	Chemical Purity (%) ([2]; 80° C. (Closed), 2 wks)	Total amount of analogous substances (%) ([2]; 80° C. (Closed), 2 wks)	Chemical Purity (%) ([2]; 80° C. (Closed), 4 wks)	Total amount of analogous substances (%) ([2]; 80° C. (Closed), 4 wks)	SMILES	other results
98.42%	1.58%	98.16%	1.84%	98.35%	1.65%	98.14%	1.86%	98.49%	1.51%	97.97%	2.03%	97.31%	2.69%	96.39%	3.61%	95.90%	4.10%	92.92%	7.08%	Cc1ccc(F)c([C@@H](C)[C@H](NS(=O)(=O)c2ccc(Cl)cc2C(N)=O)c2n[nH]c(=O)o2)c1C [Comparative Example, 5-chloro-2-(N-((1S,2R)-2-(6-fluoro-2,3-dimethylphenyl)-1-(5-oxo-4,5-dihydro-1,3,4-oxadiazol-2-yl)propyl)sulfamoyl)benzamide]	Chemical Purity (%) ([2]; Initial): 98.33%; Total amount of analogous substances (%) ([2]; Initial): 1.67%; change in the optical purity [3]: No significant change; hygroscopicity ([4]; listed as free form): had hygroscopicity; mass change in moisture adsorption/desorption test [4]: about 3.8%; charging property [5]: high charging property; charging property ([5]; listed as free form): high charging property
98.67%	1.33%	98.62%	1.38%	98.67%	1.33%	98.60%	1.40%	98.67%	1.33%	99.69%	0.31%	99.67%	0.33%	99.68%	0.32%	99.66%	0.34%	99.66%	0.34%	Cc1ccc(F)c([C@@H](C)[C@H](NS(=O)(=O)c2ccc(Cl)cc2C(N)=O)c2n[nH]c(=O)o2)c1C [Exemplary Sample, 5-chloro-2-(N-((1S,2R)-2-(6-fluoro-2,3-dimethylphenyl)-1-(5-oxo-4,5-dihydro-1,3,4-oxadiazol-2-yl)propyl)sulfamoyl)benzamide]	Solubility ([6]; 0.5% HPMC, 37° C.): 0.13 mg/mL (≈ 269 µM); Solubility ([6]; Acetate buffer (50 mM, pH 4.0), 37° C.): 0.26 mg/mL (≈ 538 µM); Solubility ([6]; Second fluid for dissolution test, pH 6.8, 37° C.): 0.61 mg/mL (≈ 1260 µM); change on XRD pattern ([6]; after 2 hr solubility study): No significant change; Chemical Purity (%) ([2]; Initial): 99.69%; Total amount of analogous substances (%) ([2]; Initial): 0.31%; change in the optical purity [3]: No significant change; hygroscopicity [4]: almost no hygroscopicity; mass change in moisture adsorption/desorption test [4]: about 0.1%; charging property [5]: weak charging property; also recorded: low charging property
